Source: patent US20160340732A1, “COMPOSITIONS AND METHODS FOR DIAGNOSING AND TREATING NUCLEOTIDE REPEAT DISORDERS” (University of Virginia Patent Foundation, priority 2015, published 2016)

Tests used:
miR-762 = miR-762 levels in cells exposed to HDAC inhibitors; assay type: cell-based; settings: mouse C2C12 cells, TSA 50 nM vs DMSO, 48 hours (FIG. 7)
Protocol: Epigenetic drugs increasing expression of miR-15 family members levels or miR762 are anticipated to have therapeutic potential. Importantly, these drugs are generally safe, and could influence NRDs even with small changes in miR levels. No regulators of miR-762 have been published, so whether candidate drugs might alter miR-762 levels in vitro were assessed. Cells were exposed to vehicle, trichostatin A (TSA, an HDAC inhibitor and antifungal agent), and valproate (an epilepsy drug, mood stabilizer, and weaker HDAC inhibitor). TSA increased miR-762 levels 65-fold (FIG. 7).

NETO1 mRNA = NETO1 mRNA levels in astrocytes transfected with miR-762 mimic, inhibitor or scrambled miR; assay type: cell-based; settings: non-diseased astrocytes transfected with 400 nM, vs scrambled miR (FIG. 15)
From the text: De novo introduction of the expanded repeat into naïve wild-type cells to induce NETO1 expression will be evaluated. […] NETO1 is not a predicted target of miR-762 by traditional in silico analysis (which relies on 3′ UTR analysis). However, a (C4G2)3 site 149 base pairs upstream of the NETO1 5′ UTR was identified that appeared significant both for its perfect replication of the C9 antisense expansion and its predicted tight pairing to miR-762 (RegRNA database: http://regrna.mbc.nctu.edu.tw/html/prediction.html). miR binding and regulation of transcripts in the 5′ region is poorly understood, but is known to occur. miR-762 may be able to bind and downregulate NETO1 transcript levels. To assess this, non-diseased astrocytes were transfected with 400 nM miR-762 mimic, miR-762 inhibitor, or scrambled miR. […] If NETO1 regulation is involved in FTLD-MND glutamate excitotoxicity, then targeting miR-762 regulation of the transcript could represent a possible therapeutic angle.

Row | Compound | increase of miR-762 levels (miR-762) [fold] | NETO1 mRNA level (NETO1 mRNA)
1 | CC(/C=C/C(=O)NO)=C\[C@@H](C)C(=O)c1ccc(N(C)C)cc1 [TSA, trichostatin A] | 65 | –
2 | miR-762: miR-762 mimic transfected at 400 nM; miRNA sequence SEQ ID NO: 5 (Table 1) (CGAGCCGGGGCCGGGGUCGGGG; listed as RNA, chemistry not given here; listed as Homo sapiens) | – | reproducible and significant downregulation
